# Reference: patent US10618901B2 (GlaxoSmithKline Intellectual Property Development Limited, priority 2014, dated 2020)
# Biological target: T1, 6HIS-Tev-LRRK2 (1326-2527) (Homo sapiens, UniProt Q5S007)
# T1 construct: A LRRK2 cDNA encoding residues 1326-2527 was received from Dundee University; made in house; host or cells: Spodoptera frugiperda Sf9 (baculovirus, pFB-HTb)
# T1 sequence (Q5S007 1326-2527): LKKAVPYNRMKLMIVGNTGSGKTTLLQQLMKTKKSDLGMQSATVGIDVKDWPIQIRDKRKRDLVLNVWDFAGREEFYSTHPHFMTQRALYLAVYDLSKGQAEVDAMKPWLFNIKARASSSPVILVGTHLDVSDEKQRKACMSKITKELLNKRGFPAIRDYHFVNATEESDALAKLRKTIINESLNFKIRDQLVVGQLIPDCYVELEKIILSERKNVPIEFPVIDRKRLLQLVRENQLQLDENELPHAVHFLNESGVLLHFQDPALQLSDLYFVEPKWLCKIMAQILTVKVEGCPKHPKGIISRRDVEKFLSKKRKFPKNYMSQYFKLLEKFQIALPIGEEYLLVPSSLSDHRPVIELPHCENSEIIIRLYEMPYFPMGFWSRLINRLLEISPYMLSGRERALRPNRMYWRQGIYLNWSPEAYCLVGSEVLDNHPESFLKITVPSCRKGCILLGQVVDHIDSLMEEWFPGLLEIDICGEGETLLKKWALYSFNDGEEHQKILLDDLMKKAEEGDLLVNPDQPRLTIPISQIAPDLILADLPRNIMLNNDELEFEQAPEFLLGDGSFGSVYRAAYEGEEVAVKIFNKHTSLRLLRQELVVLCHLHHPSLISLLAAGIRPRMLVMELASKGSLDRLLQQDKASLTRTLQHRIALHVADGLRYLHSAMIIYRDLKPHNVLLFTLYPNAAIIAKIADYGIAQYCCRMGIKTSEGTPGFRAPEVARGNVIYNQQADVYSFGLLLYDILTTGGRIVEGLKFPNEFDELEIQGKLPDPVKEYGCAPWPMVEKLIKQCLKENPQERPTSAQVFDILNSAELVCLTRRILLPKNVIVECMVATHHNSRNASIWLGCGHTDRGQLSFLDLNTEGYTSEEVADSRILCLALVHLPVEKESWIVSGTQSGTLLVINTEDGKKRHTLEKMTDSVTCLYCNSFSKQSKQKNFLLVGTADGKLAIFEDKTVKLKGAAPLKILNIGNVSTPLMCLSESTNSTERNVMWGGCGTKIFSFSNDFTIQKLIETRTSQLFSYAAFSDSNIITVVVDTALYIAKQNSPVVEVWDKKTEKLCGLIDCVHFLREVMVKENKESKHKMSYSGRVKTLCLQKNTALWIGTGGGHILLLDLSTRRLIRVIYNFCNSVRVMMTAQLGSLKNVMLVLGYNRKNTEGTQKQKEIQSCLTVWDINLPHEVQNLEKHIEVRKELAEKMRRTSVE
# Experiment: Recombinant LRRK2 enzyme peptide substrate TR-FRET assay
# Format: biochemical
# Conditions: 60 nM LRRK2 enzyme; 1 uM Biotin-longer LRRKtide; 10 uM ATP
# Description: A LRRK2 cDNA encoding residues 1326-2527 was received from Dundee University (described in M. Jaleel et al., 2007, Biochem J, 405: 407-417). This gene fragment was subcloned into pFB-HTb (Invitrogen) using BamHI and NotI restriction sites. The LRRK2 plasmid was recombined into the baculovirus genome according to the BAC-to-BAC protocol described by Invitrogen. Transfection into Spodoptera frugiperda (Sf9) insect cells was performed using Cellfectin (Invitrogen), according to the manufacturer's protocol to generate P1 and P2 baculovirus stocks.
# Sf9 cells were grown in HyClone SFX (Thermo Scientific) growth media at 27° C., 80 rpm in shake flask until of a sufficient volume to inoculate a bioreactor. The cells were grown in a 20 liter working volume Wave bioreactor (GE Healthcare) at 27° C., 50% dissolved oxygen and an agitation rate 22 rocks per minute, 10 degree rock angle, 200 ml/min air with a cell concentration of approximately 6×e6 cells/ml. The cells were infected with P2 Baculovirus at a multiplicity of infection (MOI) of 3. The cultivation was continued for a 48 hour expression phase. The infected cells were removed from the growth media by centrifugation at 2500 g using a Sorvall RC 3C Plus centrifuge at 2500 g for 20 minutes. The cell pellet was immediately frozen and subsequently supplied for purification.
# A 260 g pellet was allowed to thaw in a water bath at 27° C. with 800 ml lysis buffer/buffer A (50 mm Tris-HCl pH 8.5, 300 mM NaCl, 1 mm DTT, 10% glycerol, 1 ml/L calbiochem complete protease inhibitor cocktail and benzonase (50 ul/800 ml)) before being dounce homogenised on ice using 20 strokes per 100 ml. The suspension was packed in ice and sonicated at 50% amplitude for 3 min 10 sec on/off using a ¾″ probe. The suspension was then centrifuged at 100,000 g for 90 min, at 4° C.
# The lysate (700 ml) was decanted from the insoluble pellet and contacted for 3 h at 4 C with 10 ml His bind Ni NTA resin by end over end mixing. The resin was recovered by centrifugation, 3000 g, 5 min at 4 C, and packed in an XK16 column. The column was then washed with 10 column volumes buffer A, 10 column volumes buffer B (buffer A+1M NaCl) and 10 column volumes buffer C (buffer A+20 mM imidazole). The column was then eluted with 15 column volumes buffer D (buffer A+300 mM imidazole) collecting 2 ml fractions. All washes and elution were conducted at 4 ml/min.
# Fractions identified by SDS-PAGE as containing protein of interest were pooled and loaded directly onto a 320 ml SEC Superdex 200 pg column that was pre-equilibrated with buffer E (50 mM Tris-HCl pH 8.5, 300 mM NaCl, 10% glycerol, 1 mM DTT). The column was loaded and eluted with 1.2 column volumes buffer E at 2 ml/min collecting 2 ml fractions. Fractions identified by SDS-PAGE as containing protein of interest were tested for activity.
# Production of Biotin-Loner LRRKtide
# The peptide (biotin-[…]-OH) was assembled at a […] scale using FMOC solid phase peptide synthesis on an ACT 357 MPS automated peptide synthesizer. The resulting crude peptide was cleaved from the resin using a 95:2.5:2.5 mix of trifluoroacetic acid: triisopropylsilane: water. The crude cleaved peptide was purified by reverse phase HPLC, eluting with a 5-35% gradient of 0.1% trifluoroacetic acid/acetonitrile in 0.1% trifluoroacetic acid/water.
# Recombinant LRRK2 Enzyme Peptide Substrate TR-FRET Assay
# This assay for LRRK2 inhibition is based on the detection of phosphorylation of the peptide ‘longer LRRKtide’ (biotin-[…]-OH) using a time resolved-fluorescence resonance energy transfer (TR-FRET) assay. It uses an antibody labelled europium chelate donor, W-1024 (Eu) and Streptavidin-Surelight APC acceptor (APC). When in close proximity, the excitation of Eu at 330 nm leads to energy transfer to APC with emission of light at 665 nm,
# Assay Protocol • 1. A 10 mM test compound was dissolved in 100% DMSO and serially diluted 1 in 4. […]
row,Molecule,recombinant LRRK2 enzyme peptide substrate TR-FRET assay (pIC50)
1,"trans-2-(5-chloro-4-((4-ethoxy-7H-pyrrolo-[2,3-d]-pyrimidin-2-yl)amino)-1H-pyrazol-1-yl)cyclopentanol [Example E38]",9.1
2,"trans-2-(5-chloro-4-((4-ethoxy-7H-pyrrolo-[2,3-d]-pyrimidin-2-yl)amino)-1H-pyrazol-1-yl)-cyclopentanol [Example E37]",9
3,"cis-3-(4-((4-ethoxy-7H-pyrrolo[2,3-d]pyrimidin-2-yl)amino)-5-methyl-1H-pyrazol-1-yl)cyclopentanol [Example E56]",8.1
4,"trans-2-(4-((4-ethoxy-7H-pyrrolo-[2,3-d]pyrimidin-2-yl)amino)-5-methyl-1H-pyrazol-1-yl)-cyclopentanol [Example E40]",8.3
5,"trans-2-(4-((4-ethoxy-7H-pyrrolo-[2,3-d]pyrimidin-2-yl)amino)-5-methyl-1H-pyrazol-1-yl)-cyclopentanol [Example E41]",8

# Same assay, conditions: 60 nM LRRK2 enzyme; 1 uM Biotin-longer LRRKtide; 10 uM ATP; read-out: recombinant LRRK2 enzyme peptide substrate TR-FRET assay (pIC50) (converted)
row,Molecule,IC50
1,"CCOc1nc(Nc2cnn(CC(C)(C)O)c2C)nc2[nH]ccc12 [Example E3, 1-(4-((4-ethoxy-7H-pyrrolo-[2,3-d]pyrimidin-2-yl)amino)-5-methyl-1H-pyrazol-1-yl)-2-methylpropan-2-ol]",12.6 nM
2,"CCOc1nc(Nc2cnn(C3CCN(C)C3)c2C)nc2[nH]ccc12 (single isomer, unassigned) [Example E14, 4-ethoxy-N-(5-methyl-1-(1-methylpyrrolidin-3-yl)-1H-pyrazol-4-yl)-7H-pyrrolo-[2,3-d]-pyrimidin-2-amine]",12.6 nM
3,"CCOc1nc(Nc2cnn(C3CC(O)C3)c2C)nc2[nH]ccc12 (stereo not shown) [Example E52, 3-(4-((4-ethoxy-7H-pyrrolo-[2,3-d]-pyrimidin-2-yl)-amino)-5-methyl-1H-pyrazol-1-yl)cyclo-butanol]",7.94 nM
4,"CCOc1nc(Nc2cnn(C3CCOCC3)c2C2CC2)nc2[nH]ccc12 [Example E44, N-(5-cyclopropyl-1-(tetrahydro-2H-pyran-4-yl)-1H-pyrazol-4-yl)-4-ethoxy-7H-pyrrolo-[2,3-d]pyrimidin-2-amine]",7.94 nM
5,"CCOc1nc(Nc2cnn(CCN3CCOCC3)c2C)nc2[nH]ccc12 [Example E45, 4-ethoxy-N-(5-methyl-1-(2-morpholinoethyl)-1H-pyrazol-4-yl)-7H-pyrrolo-[2,3-d]pyrimidin-2-amine]",10 nM

# Same assay, conditions: 60 nM LRRK2 enzyme; 10 uM ATP; read-out: pIC50 in the recombinant LRRK2 enzyme peptide substrate TR-FRET assay (converted)
row,Molecule,IC50
1,"CCOc1nc(Nc2cnn(C3CCCC3(C)O)c2C)nc2[nH]ccc12 (racemic) [Example E70, Trans-2-(4-((4-ethoxy-7H-pyrrolo-[2,3-d]pyrimidin-2-yl)amino)-5-methyl-1H-pyrazol-1-yl)-1-methylcyclopentanol]",≤ 100 nM
2,"CCOc1nc(Nc2cnn(C3CCN(C4COC4)C3)c2C)nc2[nH]ccc12 (single isomer, unassigned) [Example E67, 4-ethoxy-N-(5-methyl-1-(1-(oxetan-3-yl)-pyrrolidin-3-yl)-1H-pyrazol-4-yl)-7H-pyrrolo-[2,3-d]pyrimidin-2-amine]",≤ 100 nM
3,"CCOc1nc(Nc2cnn(CCOC)c2Cl)nc2[nH]ccc12 [Example E21, N-(5-chloro-1-(2-methoxyethyl)-1H-pyrazol-4-yl)-4-ethoxy-7H-pyrrolo-[2,3-d]-pyrimidin-2-amine]",≤ 100 nM
